Assay results from patent US20130164747A1, “Predicting Treatment Response in Cancer Subjects” (University of South Florida, priority 2005, published 2013).
Like-named read-outs stand apart in the source and are kept apart here.

Experiments:
[1] = tested on: RRM1 expression; test: Summary of observations: response by RRM1 expression level
[2] = tested on: H23 (NCI-H23) cells; test: MTS assay (modified MTT), parent cell line; format: cell-based
Method: (§1) A modified MTT assay (MTS assay, Promega, Madison, Wis.) was used to assess the impact of RRM1 expression on therapeutic efficacy of gemcitabine and platinum-containing agents in vitro. This MTS assay utilized 3-(4,5-dimethylthiazol-2-yl)-5-(3-carboxymethoxyphenyl)-2-(4-sulfophenyl)-2H-tetrazolium as the reagent. The assay was performed by seeding 4,000 cells/well in 96 well flat-bottom plates. H23-Ct, H23-R1, H23siR1, H23siCt cells were continuously exposed to drug for 72 or 96 hr. After 3 hr of incubation at 37° C., the absorbance was measured at 490 nm in a microplate reader (Benchmark Plus, Bio-Rad, Hercules, Calif.). All experiments were repeated three times.
(§2) The MTS assay was performed by seeding 4,000 cells/well in 96 well flat-bottom plates. H23-Ct, H23-R1, H23 siR1, H23siCt cells were continuously exposed to drug for 72 or 96 h. The assay was performed with 3-(4,5-dimethylthiazol-2-yl)-5-(3-carboxymethoxyphenyl)-2-(4-sulfophenyl)-2H-tetrazolium reagent. After 3 h of incubation at 37° C., the absorbance was measured at 490 nm. All experiments were repeated three times.

[3] = tested on: H23-R1 cells; test: MTS assay, RRM1-overexpressing cell line; format: cell-based
Source text: (§3) Reduced expression of RRM1 correlates with increased sensitivity to gemcitabine. Stable, genetically modified cell lines with increased and decreased RRM1 expression and corresponding controls were generated (Gautam et al., Oncogene 22:2135-42, 2003). H23, originating from a lung adenocarcinoma, was used as the parent cell line (Carney et al., Cancer Res 45:2913-23, 1985). H23siR1 was generated by stable transfection of NCI-H23 with a pSUPER-siRRM1 construct. These cells express an siRNA that targets RRM1, thereby causing decreased expression of RRM1. To generate this construct, the pSUPER-GFP/neo vector (OligoEngine, Seattle, Wash.) was digested with BglII and HindIII and the annealed oligonucleotides (5′-GATCCCCgacgctagagcggtettat[…]ataagaccgctctagcgte[…]-3′(SEQ ID NO:1) and 5′-[…]gacgctagagcggtcttatTC TCTTGAAataagaccgctctagcgtcGGG-3′ (SEQ ID NO:2)) were ligated into the vector. The 19 nucleotide RRM1 target sequences are denoted by lower-case letters. The control H23siCt cell line was generated which expressed an siRNA targeting the sequence […] (SEQ ID NO:3). This sequence has no similarity to any known gene. H23-R1 is a stable RRM1 overexpressing cell line, and H23-Ct is its corresponding control. Both were generated by transfection with full-length RRM1 cDNA cloned into the expression plasmid pCMV-Tag2 (Stratagene, La Jolla, Calif.) as previously described (Gautam et al., Oncogene 22:2135-42, 2003). The level of RRM1 expression in these cell lines was assessed by real-time quantitative RT-PCR and Western blot analysis.
as §1, §2

[4] = tested on: H23-Ct cells; test: MTS assay, control cell line of H23-R1; format: cell-based
Source text: as §3, §1, §2

[5] = tested on: H23siR1 cells; test: MTS assay, cell line with siRNA-reduced RRM1 expression; format: cell-based
Source text: as §3, §1, §2

[6] = tested on: H23siCt cells; test: MTS assay, siRNA control cell line; format: cell-based
Source text: as §3, §1, §2

[7] = tested on: H23-R1 cells; test: Drug-induced apoptosis, annexin V labeling by flow cytometry; format: cell-based
Method: (§4) To determine drug-induced in vitro apoptosis, 3×10^5 cells/well were seeded in six-well plates and allowed to attach overnight. Chemotherapeutic agents were added to the culture at the indicated concentrations. After 2, 4, and 6 hours of treatment annexin V labeling of the cells was performed as recommended by the manufacturer (BD Pharmingen, San Diego, Calif.). The percentage of labeled cells was determined by flow cytometry (FACScalibur, Becton Dickinson, Franklin Lakes, N.J.). […] The proportion of cells labeled after 6 h of treatment with 250 nM gemcitabine was 6.6-6.9% in control cell lines, 2.6% in H23-R1, and 15.2% in H23siR1. Cisplatin exposure for 6 h at 200 nM yielded 14.5-15.1% apoptotic cells in H23-Ct and H23siCt, 5.5% apoptotic cells in H23-R1, and 19.0% apoptotic cells in H23siR1.
(§5) Induction of apoptosis as a result of drug exposure was determined with 3×10^5 cells/well in six-well plates after 2, 4 and 6 hours of treatment. Cells were then labeled with annexin V, and labeling was determined by flow cytometry (FACScalibur, Becton Dickinson). After 4 h and 6 h of gemcitabine treatment 2.55% and 5.05% of the H23siCt cells were apoptotic while 5.09% and 15.7% of H23siR1 cells were apoptotic (FIG. 4). Likewise, the proportion of apoptotic cells after exposure to […] was higher in H23siR1 than in control cells. […] The increased apoptosis caused by both drugs in cell lines with reduced RRM1 expression was significant (p<0.05) as compared to control cells.

[8] = tested on: H23siR1 cells; test: as above; format: cell-based
Method: as §4, §5

[9] = tested on: control cell lines H23-Ct and H23siCt; test: as above; format: cell-based; settings: 6 h
Method: as §4

[10] = tested on: H23siCt cells; test: as above; format: cell-based
Method: as §5

[11] = tested on: ERCC1 expression; test: Summary of observations: response by ERCC1 expression level
[12] = Homo sapiens, H23 (NCI-H23) parent cell line, continuous exposure 72 or 96 hr, read-out: IC50 +/− SD
[13] = H23-R1, RRM1 3-fold up, continuous exposure 72 or 96 hr, read-out: IC50 +/− SD
[14] = RRM1 no change, continuous exposure 72 or 96 hr, read-out: IC50 +/− SD
[15] = H23siR1, RRM1 5-fold down, continuous exposure 72 or 96 hr, read-out: IC50 +/− SD
[16] = continuous exposure 72 or 96 h, read-out: IC50
[17] = H23 (NCI-H23) parent cell line, continuous exposure 72 or 96 hr, read-out: IC50 +/− SD

In the case of Nc1nc2[nH]cc(CCc3ccc(C(=O)N[C@@H](CCC(=O)O)C(=O)O)cc3)c2c(=O)[nH]1 [Pemetrexed, pemetrexed], the “Response at RRM1 high expression” value [1] is reported as “resistant” and the “Response at RRM1 low expression” value [1] is reported as “Sensitive”.

CC(=O)O[C@@]12CO[C@@H]1C[C@H](O)[C@@]1(C)C(=O)[C@H](O)C3=C(C)[C@@H](OC(=O)[C@H](O)[C@@H](NC(=O)OC(C)(C)C)c4ccccc4)C[C@@](O)([C@@H](OC(=O)c4ccccc4)[C@H]21)C3(C)C [Docetaxel, docetaxel] showed an IC50 [2, 12] of 1 µM, an IC50 [3, 13] of 0.009 µM and an IC50 [4, 14] of 0.7 µM. For the same compound, the IC50 [5, 15] was 0.006 µM, the IC50 [6, 14] was 2.5 µM and the “Apoptosis compared with control cells” value ([7]; H23-R1 versus control cells) was “more apoptosis”. For the same compound, the “Proportion of apoptotic cells compared with control cells” value ([8]; H23siR1 versus control cells) was “higher”, the “Response at RRM1 high expression” value [1] was “Sensitive” and the “Response at RRM1 low expression” value [1] was “Sensitive”. The “Response at RRM1 medium expression” value [1] was “Resistant”.

In the case of Nc1ccn([C@@H]2O[C@H](CO)[C@@H](O)C2(F)F)c(=O)n1 [Gemcitabine, gemcitabine], the IC50 [2, 12] is reported as 0.5 µM, the IC50 [3, 13] is reported as 6 µM and the “IC50 of H23-R1 higher than IC50 of H23-Ct (more resistant than control cell line)” value ([3]; H23-R1 versus H23-Ct) is reported as 8 fold. For the same compound, the IC50 [4, 14] was 0.75 µM, the IC50 [5, 15] was 0.1 µM and the “IC50 of H23siR1 lower than IC50 of H23siCt (more sensitive than control cell line)” value ([5]; H23siR1 versus H23siCt) was 10 fold. The IC50 [6, 14] was 1.02 µM, the “Proportion of cells labeled with annexin V” value (shortened to “Proportion of cells labeled”) ([7]; H23-R1, 250 nM gemcitabine, 6 h) was 2.6% and the “Proportion of cells labeled” value ([8]; H23siR1, 250 nM gemcitabine, 6 h) was 15.2%. For the same compound, the Apoptotic cells ([8]; H23siR1, 4 h of treatment (Example 4, FIG. 4)) was 5.09%, the Apoptotic cells ([8]; H23siR1, 6 h of treatment (Example 4, FIG. 4)) was 15.7% and the “Proportion of cells labeled” value ([9]; control cell lines, 250 nM gemcitabine) was 6.6-6.9%. For the same compound, the Apoptotic cells ([10]; 4 h of treatment (Example 4, FIG. 4)) was 2.55%, the Apoptotic cells ([10]; 6 h of treatment (Example 4, FIG. 4)) was 5.05% and the “Response at RRM1 high expression” value [1] was “resistant”. The “Response at RRM1 low expression” value [1] was “Sensitive”.

CCC1=C[C@@H]2CN(C1)Cc1c([nH]c3ccccc13)[C@@](C(=O)OC)(c1cc3c(cc1OC)N(C)[C@H]1[C@@](O)(C(=O)OC)[C@H](OC(C)=O)[C@]4(CC)C=CCN5CC[C@]31[C@@H]54)C2 [Vinorelbine, vinorelbine] was tested, and the IC50 ([2]; Homo sapiens, NCI-H23, continuous exposure 72 or 96 h, read-out: IC50) was 8 µM, the IC50 ([3]; H23-R1, continuous exposure 72 or 96 h, read-out: IC50) was 0.4 µM and the IC50 [4, 16] was 20 µM. The IC50 ([5]; H23siR1, continuous exposure 72 or 96 h, read-out: IC50) was 0.01 µM, the IC50 [6, 16] was 20 µM and the “Response at RRM1 high expression” value [1] was “Sensitive”. The “Response at RRM1 low expression” value [1] was “Sensitive” and the “Response at RRM1 medium expression” value [1] was “Resistant”.

With N.N.O=C([O-])C1(C(=O)[O-])CCC1.[Pt+2] [Carboplatin, carboplatin] the IC50 [2, 17] was 12 µM, the IC50 [4, 14] was 15 µM and the IC50 [5, 15] was 10 µM. The IC50 [6, 14] was 13 µM, the “Response at RRM1 high expression” value [1] was “Minimal” and the “Response at RRM1 low expression” value [1] was “Minimal”. For the same compound, the “Response at ERCC1 high expression” value [11] was “resistant” and the “Response at ERCC1 low expression” value [11] was “sensitive”.

Work on N.N.[Cl][Pt][Cl] [Cisplatin, cisplatin] yielded an IC50 [2, 17] of 1.2 µM, an IC50 [3, 13] of 1.5 µM and an IC50 [4, 14] of 1.25 µM. It also gave an IC50 [5, 15] of 0.95 µM, an IC50 [6, 14] of 1 µM and an Apoptotic cells ([7]; H23-R1, cisplatin 200 nM, 6 h) of 5.5%. For the same compound, the Apoptotic cells ([8]; H23siR1, cisplatin 200 nM, 6 h) was 19.0%, the Apoptotic cells ([9]; H23-Ct and H23siCt, cisplatin 200 nM) was 14.5-15.1% and the “Response at RRM1 high expression” value [1] was “Minimal”. For the same compound, the “Response at RRM1 low expression” value [1] was “Minimal”, the “Response at ERCC1 high expression” value [11] was “resistant” and the “Response at ERCC1 low expression” value [11] was “sensitive”.
